Test results as given in patent publication US20230075365A1, “HERBICIDE COMBINATIONS COMPRISING GLUFOSINATE AND SELECTED PPO INHIBITORS” (BASF SE, priority 2020, published 2023).

Columns and labels:
Kochia = assay: Greenhouse post emergence treatment, visual herbicidal activity against Kochia; format: in vivo, Bassia scoparia; details: scale from 0 to 100
Excerpt: (§1) Synergism can be described as an interaction where the combined effect of two or more compounds is greater than the sum of the individual effects of each of the compounds. The presence of a synergistic effect in terms of percent control, between two mixing partners (X and Y) can be calculated using the Colby equation (Colby, S. R., 1967, Calculating Synergistic and Antagonistic Responses in Herbicide Combinations, Weeds, 15, 21-22):
(§2) When the observed combined control effect is greater than the expected (calculated) combined control effect (E), then the combined effect is synergistic.
(§3) Pots with 0.3 L of volume were filled with soil (SunGro Horticulture, Agawam, Mass. 01001) to grow one plant per pot in the greenhouse until the desired developmental stage. Environmental conditions inside the greenhouse were set up for 25° C., 75% relative humidity, and 12 h light day-1 with natural sunlight or 500 μmol m-1 s-1 PAR (photosynthetically active radiation) for cloudy days. Glufosinate applications were always performed in full sunlight to achieve maximum activity. The test period extended to 2 to 21 days after treatment. During this time, the plants were tended, and their response to the individual treatments was evaluated. The evaluation was carried out by visual control using a scale from 0 to 100. 100 means no emergence of the plants or complete destruction of at least the above-ground parts, and 0 means no damage, or normal course of growth. Data shown are the mean of three replications.

Velvetleaf = assay: Greenhouse post emergence treatment (Acifluorfen test method), herbicidal activity against Velvetleaf; format: in vivo, Abutilon theophrasti
Description: Pots with 0.8 L of volume were filled with soil (Sungro Horticulture, Agawam, Mass. 01001) to grow one plant per pot in the greenhouse until the desired developmental stage. Environmental conditions inside the greenhouse were set up for 30° C., 50% relative humidity, and 12 hr light day-1 with natural sunlight or 760 umol m-1 s-1 PAR (Photosynthetically active radiation) for cloudy days. Glufosinate applications were always performed in full sunlight to achieve maximum activity Pots with test plants grown to 3.5 to 4.5 inch (8.9 to 11.4 cm) tall were treated with the herbicidal compositions, which were obtained by diluting commercially available formulations with deionized water to desired concentration, and then sprayed using finely distributing nozzles on to the plants. The test period extended over 21 days after treatment (DAT). During this time, the plants were tended and their response to the individual treatments was evaluated.
The evaluation was done by calculating using the following Colby equation, wherein X was the effect in percent using acifluorfen at an application rate a, Y was the effect in percent using glufosinate at application rate b, and E was the expected effect (in %) of acifluorfen plus glufosinate at application rates a+b.
The value E corresponds to the effect (plant damage or injury) which is to be expected if the activity of the individual compounds is just additive. If the observed effect is higher than the value E calculated according to Colby, a synergistic effect is present.
The evaluation for the damage caused by the chemical compositions was carried out using a scale from 0 to 100%, compared to the untreated control plants. Here, 0 means no damage and 100 means complete destruction of the plants.
Adjuvants of ammonium sulfate (as AMS Liquid) and non-ionic surfactant (NIS, here as Induce) at rates of 1680 g/ha and 0.25% (v/v), respectively, were added in all treatments with Acifluorfen.

Waterhemp = assay: Greenhouse post emergence treatment, visual herbicidal activity against Waterhemp; format: in vivo, Amaranthus tuberculatus; details: scale from 0 to 100
Excerpt: as §1, §2
as §3, with “100 means no emergence of the plants or complete destruction of at least the above-ground parts, and 0 means no damage, or normal course of growth. Data shown are the mean of three replications.” left out

For CS(=O)(=O)NC(=O)c1cc(Oc2ccc(C(F)(F)F)cc2Cl)ccc1[N+](=O)[O-] [Fomesafen], the “Herbicidal activity against Kochia (21 DAT), Found” value (“Herbicidal activity against Kochia” for short) (Kochia; Fomesafen 7.1 g ai/ha solo) was 25.
O=C(O)c1cc(Oc2ccc(C(F)(F)F)cc2Cl)ccc1[N+](=O)[O-] [Acifluorfen] was tested, and the “Herbicidal activity against Velvetleaf, solo application, % activity” value (shortened to “Herbicidal activity … % activity”) (Velvetleaf; Acifluorfen 7.176 g ai/ha solo, 7 DAT) was 38%, the “Herbicidal activity … % activity” value (Velvetleaf; Acifluorfen 7.176 g ai/ha solo, 14 DAT) was 40% and the “Herbicidal activity … % activity” value (Velvetleaf; Acifluorfen 7.176 g ai/ha solo, 21 DAT) was 33%.
CCOC(=O)C(C)OC(=O)c1cc(Oc2ccc(C(F)(F)F)cc2Cl)ccc1[N+](=O)[O-] (centres unmarked) [Lactofen] was tested, and the “Herbicidal activity against Kochia” value (Kochia; Lactofen 5.2 g ai/ha solo) was 25 and the “Herbicidal activity against Waterhemp (1 DAT), Found” value (Waterhemp; Lactofen 5 g ai/ha solo) was 3.
For CP(=O)(O)CCC(N)C(=O)O (racemic) [Glufosinate, (2RS)-2-amino-4-[hydroxy(methyl)phosphinoyl]butyric acid], the “Herbicidal activity … % activity” value (Velvetleaf; Glufosinate 123 g ai/ha solo, 7 DAT) was 49%, the “Herbicidal activity … % activity” value (Velvetleaf; Glufosinate 123 g ai/ha solo, 14 DAT) was 56% and the “Herbicidal activity … % activity” value (Velvetleaf; Glufosinate 123 g ai/ha solo, 21 DAT) was 45%. The “Herbicidal activity against Kochia” value (Kochia; Glufosinate 420 g ai/ha solo) was 25 and the “Herbicidal activity against Waterhemp (1 DAT), Found” value (Waterhemp; Glufosinate 280 g ai/ha solo) was 18.
